Data on one compound can be found in publication PMC9130233, “An inhibitor of RORγ for chronic pulmonary obstructive disease treatment” (Scientific Reports, 2022).

The test system of assay [1] is total leukocytes, neutrophils and macrophages in BAL fluid of cigarette smoke exposed mice. The assay can be described thus: Acute cigarette smoke induced pulmonary inflammation mice model. It is filed as in vivo, mouse. From the text: Cigarette smoke exposure for 7 days caused significant increase in the total cell count in BAL fluid, including leukocytes, neutrophils and macrophages as compared to an air exposed control group.
Male C57BL/6 mice aged 8–10 weeks were obtained from the animal facility of Glenmark Pharmaceuticals Ltd. All animal experiments were approved by IAEC (institutional Animal Ethics Committee) as per the guideline set up by The Committee for the Purpose of Control and Supervision of Experiments on Animals (CPCSEA), India (CPCSEA is a statutory Committee of Department of Animal Husbandry and Dairying (DAHD), Ministry of Fisheries, Animal Husbandry and Dairying (MoFAH&D), India and constituted under the Prevention of Cruelty to Animals (PCA) Act, 1960., India). All animal experiments and procedures were performed in accordance with CPCSEA and IAEC guidelines and regulations (Registration number 231/2000/CPCSEA).In addition to that, all animal experimentation complies with the guidelines of Animal Research: Reporting In Vivo Experiments (ARRIVE). Male C57BL/6 mice were exposed to either room air or cigarette smoke (CS) from 10 cigarettes (Kentucky Research Cigarettes 3R4F) for 50 min, twice daily for 7 days in a whole body box exposure system (SIU24, ProMech Lab Holding AB, Sweden). […] All aspirates of BAL were pooled and total number of cells were determined using a hemocytometer. […]

The next assay concerns mPPARγ. The assay can be described thus: Nuclear receptors: functional assay, mPPARγ agonism. It is filed as cell-based, mouse. Set-up: key: NSE No significant effect; V wk very weak (very low-level agonist activity seen with mPPARγ). The conditions noted are these: nuclear receptors: functional assays. The source says:
(§1) Based on the homology of the ligand binding domains, 3 different isoforms of ROR (hRORα, hRORβ and hRORγ) are reported. Small variations in the LBD regions possibly lead to differences in competitive binding between the nuclear receptors of the ROR isoforms (Fig. 1b). Similar to the assessment of RORγ binding assay, TR-FRET binding assays were also used to assess the affinity of PCCR-1 for other ROR isoforms. […] This was reconfirmed in cellular functional assays for the selected isoforms and nuclear receptors using Gal4 DBD with luciferase reporter system from Indigo (PA, USA). […] In addition, both cellular agonist and antagonist effects as well as for enzyme activity were evaluated with a known reference compound for each target, using a radiolabeled method (Eurofins Cerep, France, Table 1).

A further assay deals with GABA Cl. Kind of assay: Cerep panel, GABA Cl.
Source text: as §1

Assay [2] has as its system IL-17 release in mouse peritoneal neutrophils. Kind of assay: IL-17 release, mouse peritoneal neutrophils, LPS. It is filed as cell-based. The conditions noted are these: Neutrophil, n = 2, read-out: potency, IL-17 release inhibition. As to the method:
The peritoneal neutrophils or macrophages were isolated from C57BL/6 male mice or BALB/c female mice (6–8 wks; 18–22 g) injected with 3% or 4% thioglycollate broth. After 4 h or 4 days, RPMI medium was injected into the peritoneal cavity of mouse and peritoneal lavage was collected. The lavage was pooled and spun at 800 rpm for 10 min. The pellet was re-suspended in 1X Gey’s solution for 5 min followed by PBS wash. In case of neutrophils, the isolated cells were seeded in 48 well plate for 1.5 h. After 1.5 h, the supernatant containing peritoneal neutrophils were collected and centrifuged at 2000 rpm for 10 min and the pellet were re-suspended in 2% RPMI. In case of isolated peritoneal macrophages, the cells were seeded in 48 well plate for 3–4 h followed by PBS wash. Both the neutrophils and macrophages were treated with PCCR-1 in 2% RPMI for 1 h followed by stimulation with 10 µg/ml or 5 µg/ml of LPS for 18 h or 24 h. The supernatant collected for IL-17 estimation by ELISA.

Another assay deals with IL-22 in hPBMCs. The assay can be described thus: IL-22 release, human PBMC, TCR activating conditions. It is filed as cell-based. The conditions noted are these: read-out: hIL-22 IC50. As to the method:
An increase in the levels of Th17 dependent cytokine in the peripheral blood of COPD patients as compared to the Th1 and Th2 dependent cytokines has been well documented in a subset of COPD patients. A comparative study was performed under TCR activating conditions to evaluate the potencies of PCCR-1 for inhibition across Th1, Th2 and Th17 dependent cytokines using hPBMCs.
Human whole blood from healthy subjects were procured from Clinical Research Unit, Sanpada. Clinical Research Center Glenmark (Plot No. D, 508, Turbhe, TTC Industrial Area, MIDC, Sanpada, Navi Mumbai, Maharashtra 400705, India). PBMCs were isolated using heparinized blood with Ficoll Histopaque. Briefly, the cells were seeded in 96-well plate pre-coated with human anti-CD3 mAb (10 µg/mL), post 30 min of compound treatment cells were stimulated with human anti-CD28 mAb (2 µg/mL). After 72 h of culture, the supernatant was collected for Th1/Th2 cytokines; IFN-γ, IL-2, IL-4 and IL-10 and measured by ELISA. For Th17 polarization assay, the following cytokine cocktail was used: IL-1β (10 ng/ml), IL-23(10 ng/ml), IL-6 (50 ng/ml), TGF-β1 (3 ng/ml), IL-2 (20U/ml) and supernatants were used for measuring IL-17 and IL-22 by ELISA.

Assay [3] relates to IL-17 cytokine from rat splenocytes. Kind of assay: IL-17 inhibition, rat splenocytes. It is filed as cell-based. The conditions noted are these: Splenocyte, read-out: potency, rat IL-17 inhibition.

Regarding `CCn1c(C(C)(C)Oc2ccc(F)cc2F)nc2cc(NC(=O)Cc3ccc(S(=O)(=O)CC)cc3)ccc21` [PCCR-1], the “inhibition of total leukocytes in BAL fluid” value in assay [1] (intranasal once a day for 7 days, between 1 µg and 50 µg/animal) is “dose dependent inhibition”. Moreover, in assay [1] (intranasal, 10, 30, 50 and 100 µg per mouse), the “cigarette smoke mediated increase in neutrophil and macrophage counts in BAL fluid” value is “significantly obtunded”. Moreover, in the assay on mPPARγ, the “mPPARγ(agonism)” value is reported as “V wk”. Also, the IC50 in the assay on GABA Cl is 4800 nM; in assay [2], 245 nM; in the assay with IL-22 in hPBMCs it was 297 nM; in assay [3], 80.6 nM.
